ChEMBL document CHEMBL6092147, “Design of inhibitors of SARS-CoV-2 papain-like protease deriving from GRL0617: Structure-activity relationships” (Bioorg Med Chem, 2024)

Assays:
[1] = molecular target: T1, Replicase polyprotein 1ab (Severe acute respiratory syndrome coronavirus 2, UniProt P0DTD1); test: Inhibition of SARS-CoV-2 Main protease
[2] = molecular target: T1, Replicase polyprotein 1ab; test: Inhibition of SARS-CoV-2 PLpro using Ubiquitin-AMC as substrate by enzymatic assay
[3] = molecular target: T1, Replicase polyprotein 1ab; test: Inhibition of SARS-CoV-2 papain-like protease (PLpro) by FRET analysis
[4] = molecular target: T1, Replicase polyprotein 1ab; test: Inhibition of SARS-CoV2 PLpro extracted from Escherichia coli using Z-RLRGG-AMC as substrate incubated for 30 mins by fluorescence based analysis
[5] = molecular target: T1, Replicase polyprotein 1ab; test: Binding affinity to SARS-CoV-2 Main protease assessed as inhibition constant by SPR analysis
[6] = molecular target: T1, Replicase polyprotein 1ab; test: Inhibition of SARS-CoV-2 papain-like protease (PLpro) by enzymatic assay
[7] = molecular target: T1, Replicase polyprotein 1ab; test: Inhibition of SARS-CoV-2 papain-like protease (PLpro) extracted from Escherichia coli BL21 (DE3) cells using RLRGG-AMC as substrate preincubated for 10 mins followed by substrate addition measured for 35 mins by FRET analysis
[8] = molecular target: T1, Replicase polyprotein 1ab; test: Binding affinity to SARS-CoV-2 papain-like protease extracted from Escherichia coli BL21 (DE3) cells assessed as inhibition constant by SPR analysis
[9] = molecular target: T1, Replicase polyprotein 1ab; test: Inhibition of C-terminal His-tagged SARS-CoV-2 papain-like protease (PLpro) (1564 to 1876 residues) extracted from Escherichia coli BL21 (DE3) cells using Dabcyl-KTSAVLQ/SGFRKME as substrate incubated for 60 mins by FRET assay
[10] = molecular target: T1, Replicase polyprotein 1ab; test: Inhibition of SARS-CoV-2 wild type PLpro (1563 to 1878 residues) extracted from Escherichia coli Rosetta 2 (DE3) cells by Fluorescence polarization assay
[11] = molecular target: T1, Replicase polyprotein 1ab; test: Inhibition of His-tagged SARS-CoV-2 papain-like protease (PLpro) incubated for 30 mins by FRET assay
[12] = molecular target: T1, Replicase polyprotein 1ab; test: Inhibition of N-terminal 6His-tagged SARS-CoV-2 wild type PLpro extracted from Escherichia coli BL21 (DE3) cells incubated for 60 mins by FRET assay
[13] = molecular target: T1, Replicase polyprotein 1ab; test: Inhibition of SARS-CoV-2 3CL protease extracted from Escherichia coli BL21 (DE3) Rosetta cells using DabcylKNSTLQSGLRKE-Edan as substrate preincubated for 60 mins followed by substrate addition and measured after 20 mins by FRET assay
[14] = molecular target: T1, Replicase polyprotein 1ab; test: Binding affinity to SARS-CoV-2 3CL protease assessed as dissociation constant by SPR analysis
[15] = molecular target: T1, Replicase polyprotein 1ab; test: Inhibition of SARS-CoV-2 3CL protease by FRET assay
[16] = molecular target: T1, Replicase polyprotein 1ab; test: Binding affinity to SARS-CoV-2 3CL protease extracted from Escherichia coli BL21 (DE3) Rosetta cells assessed as dissociation constant

## Cc1ccc(NC(=O)CN)cc1C(=O)N[C@H](C)c1cccc2ccccc12
[1]
  IC50: 3300 nM

## Cc1ccc(N)cc1CN[C@H](C)c1cccc2ccccc12
[2]
  IC50: 41100 nM

## Cc1ccc(NCCN2CCCCC2)cc1C(=O)N[C@H](C)c1cc(-c2cccs2)cc(-c2cccs2)c1
[3]
  IC50: 110 nM

## Cc1ccc(NC(=O)[C@@H](N)CCCCN)cc1C(=O)N[C@H](C)c1cccc2ccccc12
[4]
  IC50: 1700 nM

## CCn1ccc(-c2cc(-c3cnn(CCOC)c3)cc([C@@H](C)NC(=O)c3cc(OCCN(C)C)ccc3C)c2)n1
[5]
  Ki: 30 nM
[6]
  IC50: 160 nM

## Cc1ccc(Nc2ccncc2)cc1C(=O)N[C@H](C)c1cccc2ccccc12
[4]
  IC50: 1700 nM

## Cc1ccc(NC(=O)CN2CCCCC2)cc1C(=O)N[C@H](C)c1cccc2ccccc12
[7]
  IC50: 1800 nM

## CC(=O)Nc1ccc(C)c(C(=O)NC(C)c2cccc3ccccc23)c1 (configuration not stated)
[2]
  IC50: 11000 nM

## Cc1ccc(NC(=O)C2CN(C)C2)cc1C(=O)N[C@H](C)c1cccc2ccccc12
[4]
  IC50: 1550 nM

## Cc1ccc(NC(=O)CCN)cc1C(=O)N[C@H](C)c1cccc2ccccc12
[7]
  IC50: 1800 nM

## Cc1ccc(NC(=O)[C@H]2CCCCN2)cc1C(=O)N[C@H](C)c1cccc2ccccc12
[1]
  IC50: 300 nM

## Cc1ccc(NC(=O)[C@@H](N)CN)cc1C(=O)N[C@H](C)c1cccc2ccccc12
[4]
  IC50: 1600 nM

## Cc1ccc(OCCN(C)C)cc1C(=O)N[C@H](C)c1cc(-c2cnn(C)c2)cc(-c2cnn(C)c2)c1
[5]
  Ki: 30 nM

## Cc1ccc(OCCN(C)C)cc1C(=O)N[C@H](C)c1cc(-c2cnn(C)c2)cc(-c2cncs2)c1
[8]
  Ki: 30 nM

## Cc1ccc(OCCN(C)C)cc1C(=O)N[C@H](C)c1cc(-c2cnn(C)c2)cc(-c2cnn(CCN3CCOCC3)c2)c1
[8]
  Ki: 20 nM

## Cc1ccc(NC[C@H]2CCCCN2)cc1C(=O)N[C@H](C)c1cccc2ccccc12
[1]
  IC50: 1400 nM

## Cc1ccc(NC(N)=O)cc1C(=O)N[C@H](C)c1cccc2ccccc12
[1]
  IC50: 3800 nM

## Cc1ccc(OCCN(C)C)cc1C(=O)N[C@H](C)c1cc(-c2cccs2)cc(-c2cccs2)c1
[3]
  IC50: 60 nM
[5]
  Ki: 10 nM

## Cc1ccc(NC2CCN(S(C)(=O)=O)CC2)cc1C(=O)N[C@H](C)c1cccc2ccccc12
[7]
  IC50: 1900 nM

## Cc1ccc(OCCN(C)C)cc1C(=O)N[C@H](C)c1cc(-c2cnn(C)c2)cc(-c2cnn(C(C)C)c2)c1
[8]
  Ki: 40 nM

## Cc1ccc(OCCN(C)C)cc1C(=O)N[C@H](C)c1cc(-c2cnn(C)c2)cc(-c2ccn(C)n2)c1
[8]
  Ki: 40 nM

## Cc1ccc(NC(=O)[C@@H](CN)NC[C@@H]2CCCN2)cc1C(=O)N[C@H](C)c1cccc2ccccc12
[7]
  IC50: 1900 nM

## Cc1ccc(NC(=O)CN(C)C)cc1C(=O)N[C@H](C)c1cc(-c2cccs2)cc(-c2cccs2)c1
[3]
  IC50: 110 nM

## Cc1ccc(OCCN(C)C)cc1C(=O)N[C@H](C)c1cc(-c2cnn(C)c2)cc(-c2cnn(C(F)F)c2)c1
[8]
  Ki: 30 nM

## CNCCCNc1ccc(C)c(C(=O)N[C@H](C)c2cccc3ccccc23)c1
[4]
  IC50: 1500 nM

## C[C@H](c1cccc2ccccc12)N(C)Cc1ccc2cccc(O)c2n1
[9]
  IC50: > 20000 nM

## Cc1ccc(NC(=O)N2CCCN(C)CC2)cc1C(=O)N[C@H](C)c1cccc2ccccc12
[4]
  IC50: 1500 nM

## Cc1ccc(OCCN(C)C)cc1C(=O)N[C@H](C)c1cc(-c2cnn(CF)c2)cc(-c2ccn(C)n2)c1
[8]
  Ki: 30 nM

## Cc1ccc(NC(=O)CN)cc1C(=O)N[C@H](C)c1cc(-c2cccs2)cc(-c2cccs2)c1
[3]
  IC50: 140 nM

## COc1cc(CNC(=O)C2CC3(C2)CN([C@H](C)c2cccc4ccccc24)C3)ccn1
[10]
  IC50: 5400 nM

## Cc1ccc(NC(=O)C2CCNCC2)cc1C(=O)N[C@H](C)c1cc(-c2cccs2)cc(-c2cccs2)c1
[3]
  IC50: 163 nM

## Cc1ccc(NC[C@H]2CCCN2)cc1C(=O)N[C@H](C)c1cccc2ccccc12
[1]
  IC50: 900 nM

## Cc1ccc(NC(=O)[C@@]2(C)CCCN2)cc1C(=O)N[C@H](C)c1cccc2ccccc12
[7]
  IC50: 1800 nM

## Cc1ccc(NC(=O)C2(N)CC2)cc1C(=O)N[C@H](C)c1cccc2ccccc12
[1]
  IC50: 3800 nM

## Cc1ccc(OCCN(C)C)cc1C(=O)N[C@H](C)c1cc(-c2cnn(C)c2)cc(-c2cnn(C3CC3)c2)c1
[8]
  Ki: 30 nM

## Cc1ccc(OCCN(C)C)cc1C(=O)N[C@H](C)c1cc(-c2cnn(CCN3CCOCC3)c2)cc(-c2ccn(C)n2)c1
[8]
  Ki: 40 nM

## Cc1ccc(OCCN2CCCC2)cc1C(=O)N[C@H](C)c1cc(-c2cccs2)cc(-c2cccs2)c1
[3]
  IC50: 70 nM

## Cc1ccc(OCCN(C)C)cc1C(=O)N[C@H](C)c1cc(-c2cccs2)cc(-c2ccc(CN)s2)c1
[8]
  Ki: 70 nM

## Cc1ccc(NC[C@@H]2CCCN2)cc1C(=O)N[C@H](C)c1cccc2ccccc12
[1]
  IC50: 800 nM

## Cc1ccc(NC2CCN(C[C@H]3CCCN3)CC2)cc1C(=O)N[C@H](C)c1cccc2ccccc12
[7]
  IC50: 1800 nM

## Cc1ccc(NC(=O)[C@@H](N)CCN)cc1C(=O)N[C@H](C)c1cccc2ccccc12
[7]
  IC50: 1900 nM

## Cc1ccc(NC(=O)[C@@H]2CCCCN2)cc1C(=O)N[C@H](C)c1cccc2ccccc12
[1]
  IC50: 1300 nM

## Cc1ccc(NC(=O)N2CCN(C)CC2)cc1C(=O)N[C@H](C)c1cccc2ccccc12
[4]
  IC50: 1600 nM

## Cc1ccc(OCC[N+](C)(C)C)cc1C(=O)N[C@H](C)c1cc(-c2cccs2)cc(-c2cccs2)c1
[3]
  IC50: 130 nM

## Cc1ccc(NC[C@@H]2CCCCN2)cc1C(=O)N[C@H](C)c1cccc2ccccc12
[1]
  IC50: 900 nM

## C[C@H](c1cccc2ccccc12)N(C)Cc1ccc(OCC(N)=O)cc1
[11]
  IC50: 2840 nM

## Cc1ccc(NC[C@@H]2CCCN2C)cc1C(=O)N[C@H](C)c1cccc2ccccc12
[1]
  IC50: 900 nM

## COCn1cc(-c2cc(-c3cnn(C(F)F)c3)cc([C@@H](C)NC(=O)c3cc(OCCN(C)C)ccc3C)c2)cn1
[8]
  Ki: 80 nM

## Cc1ccc(NCC(C)(C)N)cc1C(=O)N[C@H](C)c1cccc2ccccc12
[7]
  IC50: 1800 nM

## Cc1ccc(NC(=O)C2CN(C)CCN2C)cc1C(=O)N[C@H](C)c1cccc2ccccc12 (mixture of isomers)
[7]
  IC50: 1700 nM

## Cc1ccc(NCC2CCN2)cc1C(=O)N[C@H](C)c1cccc2ccccc12 (mixture of isomers)
[1]
  IC50: 900 nM

## Cc1ccc(NCC2CCNC2)cc1C(=O)N[C@H](C)c1cccc2ccccc12 (mixture of isomers)
[4]
  IC50: 1500 nM

## Cc1ccc(NC(=O)C2CCN2)cc1C(=O)N[C@H](C)c1cccc2ccccc12 (mixture of isomers)
[7]
  IC50: 1800 nM

## Cc1ccc(NC(=O)C2CN(C)CCN2)cc1C(=O)N[C@H](C)c1cccc2ccccc12 (mixture of isomers)
[4]
  IC50: 1700 nM

## COc1cc(CNC(=O)C2CCN(C(C)c3cccc4ccccc34)CC2)ccn1 (racemic)
[10]
  IC50: 1100 nM

## CCOc1ccc2ccccc2c1C(C)N1CCC(C(=O)NCc2ccnc(OC)c2)CC1 (racemic)
[12]
  IC50: > 98000 nM

## COc1cc(CNC(=O)C2CN(C(C)c3cccc4ccccc34)C2)ccn1 (racemic)
[10]
  IC50: 27300 nM

## CCC(C(=O)Nc1cc(NC2CCOCC2)ccc1C)n1cccc2nc(SCc3ccc(F)cc3)nc1-2 (racemic)
[13]
  IC50: 600 nM

## CCC(C(=O)Nc1cc(NC2CCNCC2)ccc1C)n1cc(Br)cc2nc(SCc3ccc(F)cc3)nc1-2 (racemic)
[14]
  Kd: 170 nM
[15]
  IC50: 50 nM

## CCC(C(=O)Nc1cc(NC2CCNC2)ccc1C)n1cccc2nc(SCc3ccc(F)cc3)nc1-2 (racemic)
[14]
  Kd: 250 nM

## CCC(C(=O)Nc1cc(NC2CNC2)ccc1C)n1cc(Cl)cc2nc(SCc3ccc(F)cc3)nc1-2 (racemic)
[14]
  Kd: 100 nM
[15]
  IC50: 90 nM

## CCC(C(=O)Nc1cc(NC2CCOC2)ccc1C)n1cc(F)cc2nc(SCc3ccc(F)cc3)nc1-2 (racemic)
[13]
  IC50: 1860 nM

## CCC(C(=O)Nc1cc(NC2CCNC2)ccc1C)n1cc(Cl)cc2nc(SCc3ccc(F)cc3)nc1-2 (racemic)
[14]
  Kd: 100 nM
[15]
  IC50: 70 nM

## CCC(C(=O)Nc1cc(NC2CNC2)ccc1C)n1cc(Br)cc2nc(SCc3ccc(F)cc3)nc1-2 (racemic)
[14]
  Kd: 100 nM
[15]
  IC50: 70 nM

## COc1cc(CNC(=O)C2CCN(C(C)c3c(OC)ccc4ccccc34)CC2)ccn1 (racemic)
[12]
  IC50: > 98000 nM

## CCC(C(=O)Nc1cc(NC2COC2)ccc1C)n1cc(F)cc2nc(SCc3ccc(F)cc3)nc1-2 (racemic)
[13]
  IC50: 400 nM
[16]
  Kd: 400 nM

## COc1cc(CNC(=O)C2CCN(C(C)c3c(C)sc4ccccc34)CC2)ccn1 (racemic)
[12]
  IC50: > 98000 nM

## CCC(C(=O)Nc1cc(NC2CCOC2)ccc1C)n1cc(Cl)cc2nc(SCc3ccc(F)cc3)nc1-2 (racemic)
[13]
  IC50: 160 nM

## CCC(C(=O)Nc1cc(NC2CCOCC2)ccc1C)n1cc(F)cc2nc(SCc3ccc(F)cc3)nc1-2 (racemic)
[13]
  IC50: 1400 nM

## CCC(C(=O)Nc1cc(NC2COC2)ccc1C)n1cccc2nc(SCc3ccc(F)cc3)nc1-2 (racemic)
[13]
  IC50: 300 nM

## CCC(C(=O)Nc1cc(NC2CNC2)ccc1C)n1cc(F)cc2nc(SCc3ccc(F)cc3)nc1-2 (racemic)
[14]
  Kd: 270 nM
[15]
  IC50: 200 nM

## CCC(C(=O)Nc1ccccc1C)n1cc(F)cc2nc(SCc3ccc(F)cc3)nc1-2 (racemic)
[13]
  IC50: 5090 nM

## CCC(C(=O)Nc1cc(NC2CCOC2)ccc1C)n1cc(Br)cc2nc(SCc3ccc(F)cc3)nc1-2 (racemic)
[13]
  IC50: 500 nM
[16]
  Kd: 1400 nM
